Biological target: T1, binding between Rap1 and p30 (Homo sapiens, UniProt P62834+Q8WWW0)
T1 construct: made in house; 293T cells for Myc-p30 (crude lysate)
T1 sequence (P62834 1-184): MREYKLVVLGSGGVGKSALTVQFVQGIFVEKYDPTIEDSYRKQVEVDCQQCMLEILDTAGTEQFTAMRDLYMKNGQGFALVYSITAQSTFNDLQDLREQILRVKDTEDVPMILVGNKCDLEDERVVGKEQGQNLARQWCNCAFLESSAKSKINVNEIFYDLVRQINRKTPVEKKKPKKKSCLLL
T1 sequence (Q8WWW0 1-265 isoform Q8WWW0-2): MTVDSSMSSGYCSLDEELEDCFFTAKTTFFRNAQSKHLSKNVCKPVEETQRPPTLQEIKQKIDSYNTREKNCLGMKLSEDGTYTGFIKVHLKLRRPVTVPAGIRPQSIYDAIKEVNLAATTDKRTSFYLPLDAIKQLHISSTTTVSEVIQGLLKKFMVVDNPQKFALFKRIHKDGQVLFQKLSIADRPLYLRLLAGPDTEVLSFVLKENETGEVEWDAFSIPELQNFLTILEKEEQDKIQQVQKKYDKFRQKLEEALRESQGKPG
Assay: Rap1-p30 binding inhibition assay (GST-Rap1 beads pull-down of Myc-p30 lysate, western blot)
Conditions: 1 μM compound, GTPγS-activated Rap1, reaction 4° C. 30 sec; FIG. 7
Description: For a plasmid for production of GST-Rap1 fusion protein, pGEX-3× (product of Amersham Pharmacia Biotech) was used. The Rap1 coding sequence represented by SEQ ID NO:1 was inserted between BamHI and EcoRI restriction enzyme sites of the vector. At this time, two nucleotide pair CC were added in front of the 5′ terminal ATG of the nucleotide sequence represented by SEQ ID NO:1 for frame adjustment. […] GGATCCCCATG . . . 3′. The obtained plasmid for production of GST-Rap1 fusion protein was transfected into E. coli. The E. coli with the inserted plasmid was cultured, and GST-Rap1 protein was produced within E. coli cells by inducing the protein production with 0.2 mM IPTG (isopropylthiogalactopyranoside) (30° C., 2 hours). The E. coli cells were recovered by centrifugation, solubilized in a lysis buffer (100 mM NaCl, 50 mM Tris-HCl (pH 7.5), 1% Triton X100, 2 mM MgCl2, 0.1 TIU/ml Aprotinin), and disrupted by sonication. The solution was centrifuged, and then glutathione Sepharose 4B beads (product of Amersham) was added to the obtained supernatant and reacted at 4° C. for one hour to prepare GST-Rap1 beads.
A plasmid of p30-Myc tag was introduced into 293T cells in 70% confluency by electroporation. […]
The bands visualized by exposing to the film for chemiluminescence were quantitated with use of image analyzing software (Win Roof, product of Mitani Corp.). […]

For `CCS(=O)(=O)Nc1ncc(C(F)(F)F)cc1NC(=O)C1CCCCC1.O.[Na]` [compound 1, N-(2-ethylsulfonylamino-5-trifluoromethyl-3-pyridyl)cyclohexanecarboxamide monosodium salt monohydrate], which “p30 band volume (brightness×area) of p30 bound to activated GST-Rap1, compared to group without addition” value is on record?
The value was “significantly lower”.
